Data set [1] deals with Myzus persicae. Nature of the data set: Myzus persicae - Test (MYZUPE spray application). Format: in vivo. The source says: Myzus persicae—Test; (MYZUPE Spray Application)
Chinese cabbage (Brassica pekinesis) leaf—disks infected with all instars of the green peach aphid (Myzus persicae), are sprayed with a preparation of the active ingredient at the desired concentration.
100% means that all aphids have been killed; 0% means that none of the aphids have been killed.

For data set [2], the system named is Phaedon cochleariae. As to the kind of experiment: Phaedon cochleariae Larvae - Test (PHAECO spray application). The data set is classed as in vivo. The text has this: Phaedon cochleariae—Test; (PHAECO Spray Application)
Solvent: 78 parts by weight of acetone • 1.5 parts by weight of N,N-dimethylformamide Emulsifier: 0.5 parts by weight of alkylarylpolyglycolether
Once dry, the leaf discs are infested with mustard beetle larvae (Phaedon cochleariae).

For data set [3], the system named is Spodoptera frugiperda. As to the kind of experiment: whole plant or invertebrate. The procedure:
Spodoptera frugiperda—Test (SPODFR Spray Application)
Solvent: 78.0 parts by weight acetone • 1.5 parts by weight N,N-dimethylformamide Emulsifier: 0.5 parts by weight alkylarylpolyglycolether
Maize (Zea mais) leaf sections are sprayed with a preparation of the active ingredient of the desired concentration. Once dry, the leaf sections are infested with larvae of the fall armyworm (Spodoptera frugiperda).
After the specified period of time, the mortality in % is determined. 100% means that all caterpillars have been killed and 0% means that none of the caterpillars have been killed.

The test system of data set [4] is Tetranychus urticae. As to the kind of experiment: Tetranychus urticae - Test; OP-resistant (TETRUR spray application). Format: in vivo. Conditions: for Mortality in % after 6 days obs.: single active ingredient. The text has this: Tetranychus urticae—Test; OP-Resistant (TETRUR Spray Application)
French beans (Phaseolus vulgaris) which are heavily infested with all stages of the two spotted spidermite (Tetranychus urticae), are sprayed with a preparation of the active ingredient at the desired concentration.

[5] abbreviates: Myzus persicae, 24 h, read-out: Mortality in % after 1 day obs.
[6] abbreviates: Phaedon cochleariae, 48 h, read-out: Mortality in % after 2 days obs.
The mark [7] stands for this setting: Phaedon cochleariae, 144 h, read-out: Mortality in % after 6 days obs.
[8] abbreviates: Spodoptera frugiperda, 144 h, read-out: Mortality in % after 6 days obs.
Setting [9] is: Tetranychus urticae, 48 h, read-out: Mortality in % after 2 days obs.
Setting [10] is: Tetranychus urticae, 144 h, read-out: Mortality in % after 6 days obs.
The mark [11] stands for this setting: Myzus persicae, 144 h, read-out: Mortality in % after 6 days obs.
Setting [12] is: Spodoptera frugiperda, 48 h, read-out: Mortality in % after 2 days obs.

Where two headings read alike, the source gives them in different places.

As usually defined, the mortality is the percentage killed. Turning to `O=C1C=C(N(Cc2ccc(Cl)nc2)CC(F)F)CO1` [B-27.16, 4-{[(6-chloropyridin-3-yl)methyl](2,2-difluoroethyl)-amino}furan-2(5H)-one], the mortality at 4 g/ha in data set [1] (setting [5]) came out at 0%. For the same molecule, the mortality at 100 g/ha in data set [1] (setting [5]) stood at 80%; in data set [2] (setting [6]), 50%; in data set [4] (setting [9]), 0%; in data set [4] (setting [10]) it was 0%. The mortality at 20 g/ha in data set [2] (setting [7]) and in data set [3] (setting [8]) was 0% in each case.
As to Fipronil [B-2B.2], the “Mortality in % after 6 days obs.” value in data set [1] (20 g/ha) is 0%; in data set [2] (0.16 g/ha), 50%; in data set [4] (100 g/ha), 0%. Further, the figures for the “Mortality in % after 2 days obs.” value in data set [2] (0.8 g/ha), in data set [2] (4 g/ha) and in data set [3] (100 g/ha) were 33%, 67% and 67%, respectively.
Regarding `Cn1nc(C(F)F)c(C(=O)N(Cc2c(Cl)cccc2C(F)(F)F)C2CC2)c1F` [A-17, N-[2-chloro-6-(trifluoromethyl)benzyl]-N-cyclopropyl-3-(difluoromethyl)-5-fluoro-1-methyl-1H-pyrazole-4-carboxamide], the mortality at 100 g/ha in data set [1] (setting [5]), in data set [1] (setting [11]), in data set [2] (setting [6]), in data set [2] (setting [7]), in data set [3] (setting [12]) and in data set [3] (setting [8]) was 0% in each case. Further, the mortality at 100 g/ha in data set [4] (setting [9]) and in data set [4] (setting [10]) was 0% in each case.
Consider Acetamiprid [B-4A.1], for which the “Mortality in % after 1 day obs.” value in data set [1] (0.8 g/ha) is reported as 70%. The “Mortality in % after 2 days obs.” value in data set [2] (20 g/ha) came out at 50%; in data set [4] (20 g/ha), 0%. For the same molecule, the “Mortality in % after 6 days obs.” value in data set [2] (100 g/ha) and in data set [3] (20 g/ha) was 0% in each case.
With `Cn1nc(C(F)F)c(C(=O)N(Cc2c(C(F)(F)F)ccc(Cl)c2F)C2CC2)c1F` [A-18, N-[3-chloro-2-fluoro-6-(trifluoromethyl)benzyl]-N-cyclopropyl-3-(difluoromethyl)-5-fluoro-1-methyl-1H-pyrazole-4-carboxamide], the mortality at 500 g/ha in data set [1] (setting [5]), in data set [1] (setting [11]), in data set [2] (setting [6]), in data set [2] (setting [7]), in data set [3] (setting [8]) and in data set [4] (setting [9]) was 0% in each case. The mortality at 500 g/ha in data set [4] (setting [10]) came to 0%.
For the molecule `Cc1ccc(C(C)C)c(CN(C(=O)c2c(C(F)F)nn(C)c2F)C2CC2)c1` [A-12, N-cyclopropyl-3-(difluoromethyl)-5-fluoro-N-(2-isopropyl-5-methylbenzyl)-1-methyl-1H-pyrazole-4-carboxamide], the mortality at 100 g/ha in data set [1] (setting [5]), in data set [1] (setting [11]), in data set [2] (setting [6]), in data set [2] (setting [7]), in data set [3] (setting [12]) and in data set [3] (setting [8]) was 0% in each case. For the same molecule, the mortality at 100 g/ha in data set [4] (setting [9]) and in data set [4] (setting [10]) was 0% throughout. Besides, the mortality at 200 g/ha in data set [1] (setting [5]), in data set [1] (setting [11]), in data set [2] (setting [7]) and in data set [3] (setting [12]) was 0% in each case. For the same molecule, the mortality at 150 g/ha in data set [4] (setting [9]) worked out at 0%.
As for Spinetoram [B-5.1], the “Mortality in % after 6 days obs.” value in data set [2] (0.16 g/ha) amounted to 0%; in data set [2] (0.8 g/ha) it was 0%; in data set [2] (4 g/ha), 0%; in data set [4] (0.8 g/ha), 70%. Also, the “Mortality in % after 2 days obs.” value in data set [3] (0.032 g/ha) was 0%; in data set [3] (0.8 g/ha), 83%; in data set [4] (0.8 g/ha), 30%.
With `Cc1c(F)c(F)c(COC(=O)[C@@H]2[C@H](/C=C(\Cl)C(F)(F)F)C2(C)C)c(F)c1F` (racemic) [B-3A.43, Tefluthrin], the mortality at 4 g/ha in data set [1] (setting [11]) and in data set [3] (setting [8]) was 0% in each case. For the same molecule, the mortality at 20 g/ha in data set [2] (setting [7]) and in data set [4] (setting [9]) was 0% throughout. Moreover, in data set [3] (setting [8]), the mortality at 0.8 g/ha amounted to 0%.
As for `CCOP(=S)(OCC)Oc1nc(Cl)c(Cl)cc1Cl` [B-1B.10, Chlorpyrifos], the mortality at 0.8 g/ha in data set [1] (setting [11]) worked out at 0%. Besides, the mortality at 20 g/ha in data set [2] (setting [7]) and in data set [4] (setting [9]) was 0% throughout. Besides, the values for the mortality at 4 g/ha in data set [3] (setting [8]) and in data set [4] (setting [10]) were 67% and 0%, respectively.
Turning to `CC1(C)C(C=C(Cl)Cl)C1C(=O)OC(C#N)c1ccc(F)c(Oc2ccccc2)c1` (stereo not drawn) [B-3A.11, β-Cyfluthrin], the “Mortality in % after 6 days obs.” value came to 0% in data set [1] (0.16 g/ha); 70% in data set [1] (0.8 g/ha); 50% in data set [2] (0.16 g/ha); 67% in data set [2] (0.8 g/ha); 50% in data set [3] (0.16 g/ha); 0% in data set [4] (4 g/ha). Also, the “Mortality in % after 1 day obs.” value in data set [1] (0.8 g/ha) was found to be 70%.
Turning to `Cn1nc(C(F)F)c(C(=O)N(Cc2cc(Cl)ccc2C(F)(F)F)C2CC2)c1F` [A-15, N-[5-chloro-2-(trifluoromethyl)benzyl]-N-cyclopropyl-3-(difluoromethyl)-5-fluoro-1-methyl-1H-pyrazole-4-carboxamide], the mortality at 500 g/ha in data set [1] (setting [5]), in data set [1] (setting [11]), in data set [2] (setting [6]), in data set [2] (setting [7]), in data set [3] (setting [8]) and in data set [4] (setting [9]) was 0% each time. Besides, the mortality at 500 g/ha in data set [4] (setting [10]) stood at 0%.
In the case of `CNC(=O)c1cc(C#N)cc(C)c1NC(=O)c1cc(Br)nn1-c1ncccc1Cl` [B-26.2, Cyantraniliprole (Cyazypyr)], in data set [1] (0.8 g/ha), the “Mortality in % after 1 day obs.” value was 0%. For the same molecule, the “Mortality in % after 6 days obs.” value is 70% in data set [1] (0.8 g/ha), 67% in data set [2] (0.8 g/ha), 0% in data set [3] (0.16 g/ha) and 0% in data set [4] (20 g/ha). For the same molecule, in data set [2] (0.8 g/ha), the “Mortality in % after 2 days obs.” value is reported as 0%.
Regarding `CN/C(=N\[N+](=O)[O-])NCc1cnc(Cl)s1` [B-4A.2, Clothianidin], the mortality at 4 g/ha in data set [1] (setting [5]), in data set [2] (setting [7]) and in data set [4] (setting [10]) was 0% in each case. The mortality at 20 g/ha worked out at 83% in data set [2] (setting [6]), 0% in data set [3] (setting [8]), 0% in data set [4] (setting [9]) and 0% in data set [4] (setting [10]).
Take `CC1(C)[C@H](C(=O)O[C@H](C#N)c2cccc(Oc3ccccc3)c2)[C@@H]1C=C(Br)Br` [B-3A.21, Deltamethrin]: the mortality at 0.8 g/ha in data set [1] (setting [5]) came to 80%; in data set [2] (setting [7]), 33%; in data set [3] (setting [8]), 33%. Also, the mortality at 0.16 g/ha in data set [1] (setting [11]) came to 70%; in data set [2] (setting [7]), 0%; in data set [3] (setting [12]) it was 0%. In data set [3] (setting [8]), the mortality at 0.032 g/ha was determined as 0%. Also, in data set [4] (setting [10]), the mortality at 4 g/ha was 20%.
Consider `CCOC(=O)OC1=C(c2cc(C)ccc2C)C(=O)N[C@]12CC[C@@H](OC)CC2` [B-23B.1, Spirotetramat], for which the mortality at 4 g/ha came out at 70% in data set [1] (setting [11]) and 0% in data set [4] (setting [9]). Besides, the mortality at 20 g/ha in data set [1] (setting [11]) came to 70%; in data set [3] (setting [8]), 0%; in data set [4] (setting [9]), 0%. Moreover, in data set [4] (setting [10]), the mortality at 0.8 g/ha stood at 70%.
For the molecule `CC(C)c1ccccc1CN(C(=O)c1c(C(F)F)nn(C)c1F)C1CC1` [A-1, N-cyclopropyl-3-(difluoromethyl)-5-fluoro-N-(2-isopropylbenzyl)-1-methyl-1H-pyrazole-4-carboxamide], the mortality at 100 g/ha in data set [1] (setting [5]), in data set [1] (setting [11]), in data set [2] (setting [6]), in data set [2] (setting [7]), in data set [3] (setting [12]) and in data set [3] (setting [8]) was 0% throughout. The mortality at 100 g/ha in data set [4] (setting [9]) and in data set [4] (setting [10]) was 0% each time.
Take `CS/C(C)=N\OC(=O)N(C)SN(C)C(=O)O/N=C(\C)SC` [B-1A.21, Thiodicarb]: the “Mortality in % after 6 days obs.” value in data set [1] (100 g/ha) was 0%; in data set [3] (4 g/ha), 0%; in data set [3] (20 g/ha), 33%; in data set [4] (100 g/ha) it was 0%.

Source of the values: patent publication US20140051576A1, “ACTIVE COMPOUND COMBINATIONS COMPRISING A (THIO)CARBOXAMIDE DERIVATIVE AND AN INSECTICIDAL OR ACARICIDAL OR NEMATICIDAL ACTIVE COMPOUND” (priority 2011, published 2014).
